The test system of test [1] is BCL-2. Particulars: ref Souers et al., 2013; cited from earlier work.
Test [2] relates to BAX. Briefly: BAX/BCL-2 co-immunoprecipitation in HeLa cells. The format is binding. As to conditions: HeLa cells co-expressing full-length BAX and BCL-2; BCL-2 antibody IP.

The values that follow come from paper PMC4384643 (Molecular cell, 2015).

“Also recorded” adds a separate entry of the source.

For the molecule `CC1(C)CCC(CN2CCN(c3ccc(C(=O)NS(=O)(=O)c4ccc(NCC5CCOCC5)c([N+](=O)[O-])c4)c(Oc4cnc5[nH]ccc5c4)c3)CC2)=C(c2ccc(Cl)cc2)C1` [ABT-199], the BCL-2 inhibitory activity entry in test [1] is recorded as “selective BCL-2 inhibitor”.
“BCL-2 L23A: L23A point mutant of BCL-2 protein”: in test [2], the “co-immunoprecipitation of BAX with BCL-2” value is on record as “impaired by L23A mutagenesis of the BCL-2 BH4 domain; also recorded: less effective at co-immunoprecipitating BAX relative to wild-type BCL-2”.
